Measured values: US6670446B1, “N1 modified glycopeptides” (Eli Lilly and Company, priority 1998, dated 2003)

What was measured:
Format in all cases: cell-based
[1] = test system: Staphylococcus epidermidis 270; assay: MIC, standard broth micro-dilution assay, SE 270
Procedure: (§1) The antibacterial efficacy of the present compounds is illustrated by Table III. The minimal inhibitory concentrations (MICs) were determined using a standard broth micro-dilution assay.

[2] = test system: Staphylococcus haemolyticus 415; assay: MIC, standard broth micro-dilution assay, SH 415
Procedure: as §1

[3] = test system: Haemophilus influenzae RD; assay: MIC, standard broth micro-dilution assay, HFRD
Procedure: as §1

[4] = test system: Staphylococcus aureus 447; assay: MIC, standard broth micro-dilution assay, SA 447
Procedure: as §1

[5] = test system: Enterococcus faecium 180-1; assay: MIC, standard broth micro-dilution assay, EF 180-1
Procedure: as §1

[6] = test system: Staphylococcus aureus 491; assay: MIC, standard broth micro-dilution assay, SA 491
Procedure: as §1

[7] = test system: Enterococcus faecalis 2041; assay: MIC, standard broth micro-dilution assay, EF 2041
Procedure: as §1

[8] = test system: Escherichia coli EC14; assay: MIC, standard broth micro-dilution assay, EC 14
Procedure: as §1

[9] = test system: Staphylococcus aureus 489; assay: MIC, standard broth micro-dilution assay, SA 489
Procedure: as §1

[10] = test system: Staphylococcus aureus SA1199A; assay: MIC, standard broth micro-dilution assay, SA 1199A
Procedure: as §1

[11] = test system: Enterococcus faecalis 276; assay: MIC, standard broth micro-dilution assay, EF 276
Procedure: as §1

[12] = test system: Staphylococcus aureus S13E
Procedure: as §1

[13] = test system: Enterococcus gallinarum 245; assay: MIC, standard broth micro-dilution assay, EG 245
Procedure: as §1

[14] = test system: Staphylococcus aureus X400; assay: MIC, standard broth micro-dilution assay, SA X400
Procedure: as §1

[15] = test system: Staphylococcus aureus SA1199; assay: MIC, standard broth micro-dilution assay, SA 1199
Procedure: as §1

[16] = test system: Resistant Enterococcus faecium and faecalis; assay: MIC, standard broth micro-dilution assay, Resistant; conditions: geometric mean of 4-6 isolates
Procedure: as §1

[17] = test system: Staphylococcus aureus 446; assay: MIC, standard broth micro-dilution assay, SA 446
Procedure: as §1

[18] = test system: Sensitive Enterococcus faecium and faecalis; assay: MIC, standard broth micro-dilution assay, Sensitive; conditions: geometric mean of 4-6 isolates
Procedure: as §1

[19] = test system: Staphylococcus haemolyticus 105; assay: MIC, standard broth micro-dilution assay, SH 105
Procedure: as §1

[20] = test system: Staphylococcus aureus X778; assay: MIC, standard broth micro-dilution assay, SA X778
Procedure: as §1

[21] = test system: Enterococcus faecium 180; assay: MIC, standard broth micro-dilution assay, EF 180
Procedure: as §1

Row | Compound | minimal inhibitory concentration (MIC), SE 270 [1] | minimal inhibitory concentration (MIC), SH 415 [2] | minimal inhibitory concentration (MIC), HFRD [3] | minimal inhibitory concentration (MIC), SA 447 [4] | minimal inhibitory concentration (MIC), EF 180-1 [5] | minimal inhibitory concentration (MIC), SA 491 [6] | minimal inhibitory concentration (MIC), EF 2041 [7] | minimal inhibitory concentration (MIC), EC 14 [8] | minimal inhibitory concentration (MIC), SA 489 [9] | minimal inhibitory concentration (MIC), SA 1199A [10] | minimal inhibitory concentration (MIC), EF 276 [11] | minimal inhibitory concentration (MIC), SA S13E [12] | minimal inhibitory concentration (MIC), EG 245 [13] | minimal inhibitory concentration (MIC), SA X400 [14] | minimal inhibitory concentration (MIC), SA 1199 [15] | minimal inhibitory concentration (MIC), Resistant [16] | minimal inhibitory concentration (MIC), SA 446 [17] | minimal inhibitory concentration (MIC), Sensitive [18] | minimal inhibitory concentration (MIC), SH 105 [19] | minimal inhibitory concentration (MIC), SA X778 [20] | also measured
1 | CC1OC(OC2c3ccc(c(Cl)c3)Oc3cc4cc(c3OC3OC(CO)C(O)C(O)C3OC3CC(C)(NCc5ccc(-c6ccccc6)cc5)C(O)C(C)O3)Oc3ccc(cc3Cl)C(O)C(NC(=O)C3CCCN3)C(=O)NC(CC(N)=O)C(=O)NC4C(=O)NC3C(=O)NC2C(=O)NC(C(=O)O)c2cc(O)cc(O)c2-c2cc3ccc2O)CC(C)(N)C1O [Example 32, N^1-L-proline derivative of N^DISACC-(p-phenylbenzyl)desleucylA82846B] | 0.125 | 0.5 | >64 | 1 | 0.125 | 0.125 | 1 | >64 | 1 | ≦.06 | 2 | 0.25 | 0.5 | 2 | 0.25 | 16 | 1 | 0.76 | 0.125 | 0.5 | minimal inhibitory concentration (MIC), EF 180 [21]: 2
2 | CC1OC(OC2c3ccc(c(Cl)c3)Oc3cc4cc(c3OC3OC(CO)C(O)C(O)C3OC3CC(C)(NCc5ccc(-c6ccccc6)cc5)C(O)C(C)O3)Oc3ccc(cc3Cl)C(O)C(NC(=O)C(N)Cc3ccc(Cl)cc3)C(=O)NC(CC(N)=O)C(=O)NC4C(=O)NC3C(=O)NC2C(=O)NC(C(=O)O)c2cc(O)cc(O)c2-c2cc3ccc2O)CC(C)(N)C1O [Example 33, N^1-[L-3-(p-chlorophenyl)alanine] derivative of N^DISACC-(p-phenylbenzyl)desleucylA82846B] | 0.25 | 0.5 | >64 | 1 | 0.5 | 0.5 | 2 | >64 | 2 | 0.25 | 4 | 1 | 1 | 1 | 0.5 | 27 | 1 | 2.6 | 0.5 | 1 | minimal inhibitory concentration (MIC), EF 180 [21]: 4
3 | CC(C)C[C@@H](N)C(=O)N[C@H]1C(=O)N[C@@H](CC(N)=O)C(=O)N[C@H]2C(=O)N[C@H]3C(=O)NC(C(=O)N[C@H](C(=O)O)c4cc(O)cc(O)c4-c4cc3ccc4O)[C@H](OC3CC(C)(N)C(O)C(C)O3)c3ccc(c(Cl)c3)Oc3cc2cc(c3OC2OC(CO)C(O)C(O)C2OC2CC(C)(N)C(O)C(C)O2)Oc2ccc(cc2Cl)[C@H]1O (stereo partly drawn) [Example 17, N^1-D-leucine derivative of desleucylA82846B] | 0.25 | 1 | 32 | 0.5 | ≦.06 | 0.125 | ≦.06 | >64 | 0.06 | ≦.06 | 0.06 | 0.25 | 0.06 | 0.06 | 0.25 | >32 | 0.5 | 0.5 | 0.5 | 0.06 | minimal inhibitory concentration (MIC), EF 180 [21]: 1
